We go through 23 compounds from ChEMBL document CHEMBL1152762, “Medicinal chemistry approaches to the inhibition of dipeptidyl peptidase-4 for the treatment of type 2 diabetes” (Bioorg Med Chem, 2009).

For one data set, the target named is T1, Prolyl endopeptidase FAP (Homo sapiens, UniProt Q12884).
T1 sequence (Q12884 whole entry): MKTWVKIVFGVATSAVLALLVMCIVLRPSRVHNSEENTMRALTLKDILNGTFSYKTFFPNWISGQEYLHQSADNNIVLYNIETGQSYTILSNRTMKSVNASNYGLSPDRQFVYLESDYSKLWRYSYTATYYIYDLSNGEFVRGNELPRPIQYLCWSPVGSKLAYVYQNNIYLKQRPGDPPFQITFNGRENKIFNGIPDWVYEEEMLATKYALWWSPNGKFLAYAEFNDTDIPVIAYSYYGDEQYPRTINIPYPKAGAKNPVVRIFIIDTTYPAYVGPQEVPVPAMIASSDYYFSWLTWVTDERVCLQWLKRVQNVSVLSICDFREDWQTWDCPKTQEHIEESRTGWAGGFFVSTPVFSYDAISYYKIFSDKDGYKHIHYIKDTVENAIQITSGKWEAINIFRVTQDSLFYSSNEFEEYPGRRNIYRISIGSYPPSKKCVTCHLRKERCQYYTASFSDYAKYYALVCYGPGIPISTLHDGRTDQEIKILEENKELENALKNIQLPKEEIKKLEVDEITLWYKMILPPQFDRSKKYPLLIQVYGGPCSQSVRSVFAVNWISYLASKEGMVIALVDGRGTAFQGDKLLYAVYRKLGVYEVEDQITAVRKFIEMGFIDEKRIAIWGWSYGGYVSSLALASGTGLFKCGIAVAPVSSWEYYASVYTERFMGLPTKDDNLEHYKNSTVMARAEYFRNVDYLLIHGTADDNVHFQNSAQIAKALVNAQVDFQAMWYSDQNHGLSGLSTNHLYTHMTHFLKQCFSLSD
The data set can be described thus: Inhibition of FAP.

In the next data set the target is Dipeptidyl peptidase 9 (Homo sapiens, UniProt Q86TI2). Briefly: Inhibition of DPP9.
Dipeptidyl peptidase 9, sequence (Q86TI2 whole entry): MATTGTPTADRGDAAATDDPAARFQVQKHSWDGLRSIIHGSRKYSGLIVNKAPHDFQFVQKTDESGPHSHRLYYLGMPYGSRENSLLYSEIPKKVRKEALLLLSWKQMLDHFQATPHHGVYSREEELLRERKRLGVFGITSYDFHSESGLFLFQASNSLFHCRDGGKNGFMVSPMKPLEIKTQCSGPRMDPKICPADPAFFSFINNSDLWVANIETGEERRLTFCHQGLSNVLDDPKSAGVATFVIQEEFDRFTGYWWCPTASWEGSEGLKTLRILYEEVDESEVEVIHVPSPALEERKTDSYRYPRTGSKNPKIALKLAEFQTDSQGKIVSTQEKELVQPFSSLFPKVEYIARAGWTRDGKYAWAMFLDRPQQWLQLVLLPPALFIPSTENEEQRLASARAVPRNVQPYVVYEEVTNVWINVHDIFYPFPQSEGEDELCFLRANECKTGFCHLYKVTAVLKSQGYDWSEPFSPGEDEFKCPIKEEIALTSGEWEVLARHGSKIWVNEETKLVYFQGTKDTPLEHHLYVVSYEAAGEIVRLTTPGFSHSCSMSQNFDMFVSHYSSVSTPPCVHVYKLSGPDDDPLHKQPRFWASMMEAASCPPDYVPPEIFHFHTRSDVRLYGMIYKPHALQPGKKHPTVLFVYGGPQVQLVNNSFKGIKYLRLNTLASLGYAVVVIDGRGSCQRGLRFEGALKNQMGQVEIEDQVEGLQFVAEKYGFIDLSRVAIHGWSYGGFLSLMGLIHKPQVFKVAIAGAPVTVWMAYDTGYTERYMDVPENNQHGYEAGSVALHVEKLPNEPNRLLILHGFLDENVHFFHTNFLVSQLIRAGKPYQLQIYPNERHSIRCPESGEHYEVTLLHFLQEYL
The next data set addresses Dipeptidyl peptidase 8 (Homo sapiens, UniProt Q6V1X1).
In data set [1] the target is T2, Dipeptidyl peptidase 2 (Homo sapiens, UniProt Q9UHL4).
The target of data set [2] is Dipeptidyl peptidase 4 (Homo sapiens, UniProt P27487).
Dipeptidyl peptidase 4 (Homo sapiens, UniProt P27487), sequence (P27487 whole entry): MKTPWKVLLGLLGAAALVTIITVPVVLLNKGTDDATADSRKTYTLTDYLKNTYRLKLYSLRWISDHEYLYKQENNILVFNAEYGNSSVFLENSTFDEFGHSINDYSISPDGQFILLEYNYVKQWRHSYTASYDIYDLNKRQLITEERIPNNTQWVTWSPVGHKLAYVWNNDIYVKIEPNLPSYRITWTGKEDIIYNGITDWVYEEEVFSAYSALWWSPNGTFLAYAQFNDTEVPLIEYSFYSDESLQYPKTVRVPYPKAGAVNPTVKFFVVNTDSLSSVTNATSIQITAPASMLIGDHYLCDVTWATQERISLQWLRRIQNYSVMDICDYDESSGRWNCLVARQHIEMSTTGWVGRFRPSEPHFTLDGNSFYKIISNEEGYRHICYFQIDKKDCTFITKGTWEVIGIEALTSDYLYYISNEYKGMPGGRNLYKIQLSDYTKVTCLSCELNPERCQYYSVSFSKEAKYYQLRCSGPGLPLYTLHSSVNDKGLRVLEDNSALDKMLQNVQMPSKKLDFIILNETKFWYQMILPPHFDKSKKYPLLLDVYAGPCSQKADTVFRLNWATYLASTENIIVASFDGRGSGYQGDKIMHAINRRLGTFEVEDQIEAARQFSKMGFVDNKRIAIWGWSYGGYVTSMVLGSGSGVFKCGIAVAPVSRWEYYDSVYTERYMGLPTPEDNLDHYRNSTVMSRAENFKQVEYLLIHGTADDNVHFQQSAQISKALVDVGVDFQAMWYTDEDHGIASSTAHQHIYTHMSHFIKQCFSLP
The species entered for data set [3] is Rattus norvegicus. The data set can be described thus: animal or person. The conditions noted are these: Plasma, 6 h, read-out: INH.
Data set [4] concerns the target T3, Dipeptidyl peptidase 4 (Rattus norvegicus, UniProt P14740).
The nature of data set [5]: Half life in Sprague-Dawley rat at 10 mg/kg, po. It counts as ADME, organism-based. Set-up: dose 10 mg/kg, route oral. Particulars: in vivo.
Data set [6] in a line: Oral bioavailability in Sprague-Dawley rat at 10 mg/kg. It counts as ADME, organism-based. The conditions noted are these: in vivo.
For data set [7], the species on record is Rattus norvegicus. The data set can be described thus: animal or person. Particulars: Plasma, 0.5 h, read-out: INH.
The species named for data set [8] is Rattus norvegicus. The data set can be described thus: animal or person. Particulars: Plasma, 4 h, read-out: INH.
The next data set deals with Mus musculus. Briefly: Reduction of glucose excursion in C57BL6/N mouse at 3 mg/kg, po. It counts as functional. Details: scale not given: the % may be the effect or the level left.
Data set [9] deals with T3, Dipeptidyl peptidase 4. The source holds these as a separate data set.
The nature of data set [10]: Oral bioavailability in cynomolgus monkey. Particulars: in vivo. It counts as ADME, organism-based, Macaca fascicularis.
Data set [11] is described as follows: Stability in pH 7.4 buffer. Type of data set: physicochemical.
For data set [12], the target named is Dipeptidyl peptidase 4 (Sus scrofa, UniProt P22411). The data set can be described thus: Inhibition of pig kidney DPP4.
Dipeptidyl peptidase 4 (Sus scrofa, UniProt P22411), sequence (P22411 whole entry): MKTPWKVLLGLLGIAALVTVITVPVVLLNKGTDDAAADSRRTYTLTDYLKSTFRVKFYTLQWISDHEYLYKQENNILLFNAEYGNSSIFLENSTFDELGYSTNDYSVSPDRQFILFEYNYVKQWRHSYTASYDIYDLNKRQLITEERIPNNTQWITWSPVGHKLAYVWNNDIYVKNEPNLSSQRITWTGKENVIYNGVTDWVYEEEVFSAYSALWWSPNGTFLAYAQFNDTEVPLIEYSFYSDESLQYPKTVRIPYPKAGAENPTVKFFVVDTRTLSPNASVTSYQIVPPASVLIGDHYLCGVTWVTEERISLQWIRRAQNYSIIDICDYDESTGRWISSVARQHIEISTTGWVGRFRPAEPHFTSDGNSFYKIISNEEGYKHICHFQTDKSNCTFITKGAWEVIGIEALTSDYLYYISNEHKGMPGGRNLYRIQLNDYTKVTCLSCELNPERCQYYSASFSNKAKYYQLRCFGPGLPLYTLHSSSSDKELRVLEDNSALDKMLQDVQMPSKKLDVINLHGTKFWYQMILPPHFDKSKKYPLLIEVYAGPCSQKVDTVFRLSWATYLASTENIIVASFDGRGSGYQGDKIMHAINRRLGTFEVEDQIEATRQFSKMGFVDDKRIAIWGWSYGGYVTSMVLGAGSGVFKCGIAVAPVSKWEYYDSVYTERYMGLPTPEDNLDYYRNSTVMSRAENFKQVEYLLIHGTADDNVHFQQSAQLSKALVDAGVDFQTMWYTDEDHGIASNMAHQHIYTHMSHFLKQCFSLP
The species named for data set [13] is Rattus norvegicus.
The species named for data set [14] is Rattus norvegicus. The data set can be described thus: animal or person. Particulars: Plasma, po, 6 h, read-out: INH.
For data set [15], the species on record is Rattus norvegicus. The data set can be described thus: animal or person. The conditions noted are these: Plasma, po, 10 h, read-out: INH.
Data set [16] is described as follows: Selectivity for DPP4 over DPP8.
In data set [17] the target is Dipeptidyl peptidase 4 (Mus musculus, UniProt P28843). The data set can be described thus: Inhibition of mouse DPP4.
Dipeptidyl peptidase 4 (Mus musculus, UniProt P28843), sequence (P28843 whole entry): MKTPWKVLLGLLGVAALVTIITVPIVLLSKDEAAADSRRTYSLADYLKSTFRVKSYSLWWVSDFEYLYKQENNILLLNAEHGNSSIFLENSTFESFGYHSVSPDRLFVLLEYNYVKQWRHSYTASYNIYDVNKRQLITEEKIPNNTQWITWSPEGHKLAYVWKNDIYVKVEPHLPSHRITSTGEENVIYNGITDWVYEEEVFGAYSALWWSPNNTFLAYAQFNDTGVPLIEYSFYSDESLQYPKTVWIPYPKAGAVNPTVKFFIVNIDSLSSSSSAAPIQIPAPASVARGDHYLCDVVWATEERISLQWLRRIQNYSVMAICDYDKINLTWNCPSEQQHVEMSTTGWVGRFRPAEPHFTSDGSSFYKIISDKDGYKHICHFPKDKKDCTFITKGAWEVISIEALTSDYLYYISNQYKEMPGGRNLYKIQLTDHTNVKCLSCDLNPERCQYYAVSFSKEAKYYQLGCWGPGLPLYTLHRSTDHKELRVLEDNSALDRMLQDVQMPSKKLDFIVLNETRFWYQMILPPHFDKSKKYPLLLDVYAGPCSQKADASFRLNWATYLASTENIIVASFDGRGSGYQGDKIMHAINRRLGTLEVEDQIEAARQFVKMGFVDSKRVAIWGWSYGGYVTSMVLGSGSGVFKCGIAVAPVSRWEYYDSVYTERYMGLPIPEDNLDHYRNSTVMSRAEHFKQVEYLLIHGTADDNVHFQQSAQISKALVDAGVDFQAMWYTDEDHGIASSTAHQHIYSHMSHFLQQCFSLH
The target in data set [18] is T2, Dipeptidyl peptidase 2. The data set can be described thus: Inhibition of DPP7.
Data set [19] can be described thus: Cmax in Wistar rat at 1 mg/kg after 10 mins. Type of data set: ADME, organism-based. Set-up: dose 1 mg/kg. The conditions noted are these: in vivo.
In data set [20] the test system is Rattus norvegicus. Briefly: Ex-vivo inhibition of DPP4 in rat plasma at 10 mg/kg, po after 12 hrs. It counts as functional.

Bounds are passed on as bounds.

T3 sequence (P14740 whole entry): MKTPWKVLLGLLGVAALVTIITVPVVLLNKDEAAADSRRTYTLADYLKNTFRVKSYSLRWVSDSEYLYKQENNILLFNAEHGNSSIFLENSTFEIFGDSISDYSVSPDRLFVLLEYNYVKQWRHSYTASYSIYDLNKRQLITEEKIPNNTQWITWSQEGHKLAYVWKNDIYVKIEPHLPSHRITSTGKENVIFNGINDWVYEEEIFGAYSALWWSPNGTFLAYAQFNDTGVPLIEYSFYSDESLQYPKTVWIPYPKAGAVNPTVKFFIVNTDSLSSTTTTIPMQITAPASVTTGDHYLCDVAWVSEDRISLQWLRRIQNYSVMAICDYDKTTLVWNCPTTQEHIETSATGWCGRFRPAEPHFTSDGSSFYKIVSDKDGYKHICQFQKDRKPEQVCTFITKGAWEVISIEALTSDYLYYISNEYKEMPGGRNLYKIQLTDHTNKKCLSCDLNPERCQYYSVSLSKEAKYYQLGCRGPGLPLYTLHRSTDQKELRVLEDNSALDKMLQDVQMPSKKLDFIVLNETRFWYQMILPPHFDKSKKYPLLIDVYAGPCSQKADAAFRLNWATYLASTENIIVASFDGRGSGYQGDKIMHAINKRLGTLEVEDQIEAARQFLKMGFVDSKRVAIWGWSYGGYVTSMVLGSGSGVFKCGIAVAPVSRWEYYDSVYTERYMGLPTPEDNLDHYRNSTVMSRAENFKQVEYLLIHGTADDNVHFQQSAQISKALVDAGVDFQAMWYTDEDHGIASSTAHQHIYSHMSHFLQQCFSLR
Dipeptidyl peptidase 8, sequence (Q6V1X1 whole entry): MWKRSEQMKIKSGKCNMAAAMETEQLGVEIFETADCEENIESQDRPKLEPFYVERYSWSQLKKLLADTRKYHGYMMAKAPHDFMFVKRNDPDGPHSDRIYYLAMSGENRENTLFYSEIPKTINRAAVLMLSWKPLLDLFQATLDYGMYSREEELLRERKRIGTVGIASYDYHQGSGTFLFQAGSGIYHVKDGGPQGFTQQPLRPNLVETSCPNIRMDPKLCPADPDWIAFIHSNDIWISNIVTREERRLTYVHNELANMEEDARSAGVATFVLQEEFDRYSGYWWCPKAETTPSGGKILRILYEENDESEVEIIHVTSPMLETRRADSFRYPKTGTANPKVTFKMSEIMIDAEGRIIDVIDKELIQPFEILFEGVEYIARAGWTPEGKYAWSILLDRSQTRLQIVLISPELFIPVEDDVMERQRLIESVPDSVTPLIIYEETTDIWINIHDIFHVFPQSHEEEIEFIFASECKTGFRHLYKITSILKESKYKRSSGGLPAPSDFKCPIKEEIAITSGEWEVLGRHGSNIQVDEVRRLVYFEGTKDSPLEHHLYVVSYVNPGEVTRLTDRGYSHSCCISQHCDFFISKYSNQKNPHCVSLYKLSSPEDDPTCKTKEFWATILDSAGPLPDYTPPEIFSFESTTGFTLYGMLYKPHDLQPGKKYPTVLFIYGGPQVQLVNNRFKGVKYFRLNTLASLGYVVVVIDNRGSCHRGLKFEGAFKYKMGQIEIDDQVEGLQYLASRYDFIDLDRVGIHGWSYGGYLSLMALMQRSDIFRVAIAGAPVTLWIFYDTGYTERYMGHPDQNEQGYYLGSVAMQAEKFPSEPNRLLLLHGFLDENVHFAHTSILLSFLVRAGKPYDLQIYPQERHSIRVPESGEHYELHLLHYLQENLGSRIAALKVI

As to `CC(C)[C@H](Oc1ccc(CNC(=O)[C@@H]2CCCN2C(=O)C[C@H](N)Cc2cc(F)ccc2F)cc1)C(=O)O`, the IC50 against Prolyl endopeptidase FAP was 21000 nM; at Dipeptidyl peptidase 9, above 86000 nM; at Dipeptidyl peptidase 8, above 100000 nM; on Dipeptidyl peptidase 2 [1] it was above 100000 nM; against Dipeptidyl peptidase 4 [2], 0.48 nM.

`CC(C)=CCN1C(C2CC[C@H]3NCC[C@@H]23)=NC2C1C(=O)N(CC(=O)c1ccccc1)C(=O)N2C` (stereo partly specified) gave an IC50 on Dipeptidyl peptidase 4 [2] of 18 nM.

`CC(N)/C(F)=C1\CCC[C@@H]1C#N` (single isomer, unassigned; diastereomer 2): the IC50 on Dipeptidyl peptidase 4 [2] stood at 6030 nM.

With `COc1ccc(CS(=O)(=O)C(C)(C)[C@H](N)C(=O)N2C[C@@H](F)C[C@H]2C#N)cc1`, the inhibition in vivo at 1 mg/kg in the data set listed under Rattus norvegicus [3] was found to be 84%.

What is called half-life is how long it takes for the measured level to halve. By bioavailability is commonly meant the share of a dose that reaches the circulation, judged against a reference dose that is usually intravenous. As for `N#Cc1ccc(N[C@@H]2CN[C@H](C(=O)N3CCSC3)C2)nc1`, the IC50 at Dipeptidyl peptidase 4 [4] turned out to be 30.4 nM. Also, in data set [5], the half-life is 5.27 h. Moreover, in data set [6], the bioavailability was found to be 83.9%.

Consider `CC(N)/C(F)=C1\CCC[C@@H]1C#N` (stereo partly specified), for which the IC50 against Dipeptidyl peptidase 4 [2] is 7690 nM.

In the case of `N#C[C@@H]1C[C@@H]2C[C@@H]2N1C(=O)[C@@H](N)C12CC3CC(CC(O)(C3)C1)C2` [SAXAGLIPTIN ANHYDROUS], the inhibition in vivo at 4 µmol/kg in the data set filed under Rattus norvegicus [7] and in the data set listed under Rattus norvegicus [8] was 87% throughout.

In the case of `N[C@H](C(=O)N1CC[C@H](F)C1)[C@H]1CC[C@H](NS(=O)(=O)c2ccc(F)cc2F)CC1`, in the data set on Mus musculus, the Activity was determined as 42%.

As for `N#Cc1ccc(N[C@@H]2CNC(C(=O)N3CCC[C@H]3C#N)C2)cc1C#N` (stereo partly specified), the IC50 at Dipeptidyl peptidase 4 [9] stood at 0.17 nM.

`N#C[C@@H]1CCCN1C(=O)CNC12CC3CC(CC(O)(C3)C1)C2` [VILDAGLIPTIN] came in with a bioavailability in [10] above 90%.

For `N#C[C@@H]1CCCN1C(=O)[C@@H](N)C1CCCCC1`, the half-life in data set [11] was above 48 h.

In the data set with Mus musculus, `N[C@H](C(=O)N1CCCC1)[C@H]1CC[C@H](NS(=O)(=O)c2ccc(F)cc2F)CC1` registered an Activity of 36%.

As for `N#Cc1ccc(NCCNCC(=O)N2N=CCC2C#N)nc1` (stereo unspecified), the IC50 against Dipeptidyl peptidase 4 [12] is 490 nM; on Dipeptidyl peptidase 4 [4], 780 nM.

With `COc1ccccc1N1CCc2nc(C)c(CN)c(-c3ccc(Cl)cc3Cl)c2C1=O`, the IC50 against Dipeptidyl peptidase 4 [2] was 2.28 nM.

Take `CC(c1nc(-c2ccc(S(C)(=O)=O)cc2Cl)no1)[C@H](N)C(F)=C1CCCC1.O=C(O)C(F)(F)F` (stereo partly specified): in the data set filed under Rattus norvegicus [13], the IC50 was found to be 62%.

Consider `CN(C)C(=O)[C@@H](c1ccc(C2=CN3N=CNC3C=C2)cc1)[C@H](N)C(=O)N1CC[C@H](F)C1` (stereo partly specified), for which the IC50 against Dipeptidyl peptidase 9, on Dipeptidyl peptidase 8 and at Dipeptidyl peptidase 2 [1] was above 100000 nM throughout.

With `Cc1ccc(O)c(C)c1[C@@H]1CN[C@H](C(=O)N2CCC[C@H]2C#N)C1`, the inhibition in vivo at 1 mg/kg in the data set filed under Rattus norvegicus [14] was determined as 95%; in the data set listed under Rattus norvegicus [15] it was 83%.

`CC(C)(C)C(NC(=O)C[C@@H](N)C(=O)N1CCC[C@H]1C#N)c1ccccc1` (stereo partly specified): the Selectivity ratio in data set [16] was determined as 53. At Dipeptidyl peptidase 4 [2], this compound had an IC50 of 251 nM.

Consider `CC1(NCC(=O)N2C[C@H](F)C[C@@H]2C#N)CCN(S(C)(=O)=O)CC1`, for which, on Dipeptidyl peptidase 4 [17], the IC50 turned out to be 2.6 nM.

By Ki is commonly meant the equilibrium dissociation constant of an inhibitor or competing ligand from its target. In the case of `C[C@H](N)C(=O)N1CCC[C@H]1B(O)O`, the Ki at Dipeptidyl peptidase 2 [1] was 125 nM.

Regarding `O=C(CNC12CC3CC(CC(C3)C1)C2)N1CCC[C@H]1B(O)O`, the figures for the IC50 against Dipeptidyl peptidase 2 [18] and against Dipeptidyl peptidase 4 [2] were 420 nM and 8 nM, respectively.

As a reminder, the Cmax is the highest concentration seen after dosing. In the case of `CC[C@H](C)[C@H](N)C(=O)N1C[C@@H](F)C[C@H]1C#N`, the maximum concentration (Cmax) in [19] was found to be 372 ng/mL.

For `N#Cc1ccccc1Cn1c(N2CCC[C@@H](N)C2)nc2ccc(F)cc2c1=O`, in the data set on Rattus norvegicus [20], the inhibition in vivo at 10 mg/kg amounted to 50%.
